Measurements published in patent US20240025922A1, “TETRAHYDROPYRIDO[3,4-d]PYRIMIDINES AS HPK1 INHIBITORS” (Merck Patent GmbH, priority 2022, published 2024).
pIC50: −log10 of the molar value.

What was measured:
[1] = target: full-length human HPK1 (MAP4K1) (Homo sapiens (Human), UniProt Q92918); assay: HPK1 Kinase Assay (Biochemical Assay), ADP-Glo; details: GST-HPK1 3.2 nM, 10 μM ATP, MBP substrate, read-out: HPK1 enzymatic IC50
Excerpt: HPK1 Kinase Assay (Biochemical Assay).
A recombinant fusion protein consisting of full-length human HPK1 (MAP4K1) with an N-terminal Glutatione S-transferase (GST) tag was produced in insect cells Sf21 using the baculovirus expression system. GST-HPK1 protein was purified from cell lysates by glutathione Sepharose affinity chromatography. The assay is run in three continuous steps: 1) the HPK1 enzymatic kinase reaction, 2) an ATP depletion, and 3) the ADP detection, the steps 2 and 3 are performed with ADP-Glo™ Kinase Assay kit from Promega (V9101). Test compounds were prepared by 10-point serial dilution in dimethyl sulfoxide (DMSO) and 100 nL of each dilution was spotted onto a 384-well Optiplate (Perkin Elmer and Cat #6007299) by Labcyte Echo. 5 μL kinase reaction buffer (0.02% Brij-35, 2 mM DTT, 50 mM HEPES pH 7.5, MgCl2 10 mM, BSA 0.01% and O-glycerophosphate 12.5 mM) containing HPK1 (3.2 nM) enzyme was transferred to each well and incubated for 15 minutes at room temperature at 60% humidity. The enzymatic reaction was started by adding 5 μl of Start-Mix (10 μM ATP and 3.235 μM MBP). After 120 minutes, the reaction was stopped by adding 5 μL of ADP-Glo reagent (Promega, V9101) and incubating for 40 min. in the dark at 23° C. To determine the level of ADP, 10 μl ADP-Glo Detection solution was added and incubated for 1 hour at 23° C. in the dark. The plate was transferred to a Perkin Elmer EnVision (2104 Multilabel Reader) for luminescence detection and percent inhibition activity and IC50 value were determined using Genedata Screener.

[2] = target: HPK1 (SLP76 phosphorylation at Ser376 in Jurkat and EL-4 cells) (Homo sapiens, UniProt Q92918); type: cell-based; details: αCD3/αCD28 Dynabeads stimulated cells, pSLP76 (Ser376) detection; read-out: HPK1 pSLP76 IC50
Sequence of HPK1 (SLP76 phosphorylation at Ser376 in Jurkat and EL-4 cells) (Q92918 whole entry, looked up): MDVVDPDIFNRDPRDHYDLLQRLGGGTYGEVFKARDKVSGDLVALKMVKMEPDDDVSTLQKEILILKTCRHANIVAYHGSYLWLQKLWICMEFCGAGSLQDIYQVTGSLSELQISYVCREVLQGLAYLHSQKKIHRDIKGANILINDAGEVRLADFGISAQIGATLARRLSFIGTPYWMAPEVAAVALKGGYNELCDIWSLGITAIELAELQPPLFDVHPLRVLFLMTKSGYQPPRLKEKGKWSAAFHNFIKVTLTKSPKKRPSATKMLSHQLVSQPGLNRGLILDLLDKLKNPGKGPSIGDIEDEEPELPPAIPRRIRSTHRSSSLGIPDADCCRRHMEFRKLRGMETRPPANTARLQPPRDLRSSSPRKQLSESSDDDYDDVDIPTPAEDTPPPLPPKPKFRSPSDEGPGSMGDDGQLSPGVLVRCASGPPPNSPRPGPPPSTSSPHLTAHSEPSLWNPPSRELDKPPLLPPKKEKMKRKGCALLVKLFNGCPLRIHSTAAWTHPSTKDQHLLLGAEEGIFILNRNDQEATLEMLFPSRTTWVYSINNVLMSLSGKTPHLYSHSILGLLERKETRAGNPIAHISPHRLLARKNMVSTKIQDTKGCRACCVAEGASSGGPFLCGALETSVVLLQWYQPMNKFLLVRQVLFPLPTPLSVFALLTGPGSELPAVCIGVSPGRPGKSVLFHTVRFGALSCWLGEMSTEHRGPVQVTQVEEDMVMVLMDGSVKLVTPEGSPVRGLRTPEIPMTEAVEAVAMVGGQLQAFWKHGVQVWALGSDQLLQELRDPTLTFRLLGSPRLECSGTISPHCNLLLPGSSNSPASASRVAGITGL
Procedure: Cellular Assay—Phospho-SLP-76 (Ser376).
Inhibition of HPK1 enzymatic activity in cells was determined by detection of SLP76 phosphorylation at Ser376 residue in lysate from Jurkat (human) and EL-4 (mouse) cells. Jurkat and EL-4 cells express both HPK1 and SLP76 naturally. All cells were cultured in RPMI 1640 media containing 10% heat inactivated fetal bovine serum (FBS) and 1×Penicillin-Streptomycin. In either Jurkat or El-4 assay, cells were pre-incubated with test compounds prior to T cell stimulation by respective αCD3/αCD28 Dynabeads™. For detection, plates were read on the Envision and percent inhibition and IC50 were determined by Smart fit in Genedata Analyzer.
For Jurkat cells: 35 μL cell suspension were dispensed at a density of 30,000 cells/well in 384-well plates containing HBSS (Gibco, 14025076)+0.1% BSA). 10-point logarithmic serial dilution of test compounds in DMSO were prepared by a Hamilton automated liquid handling robot and 35 nL was transferred into each well by an Echo liquid handler. After 60 min. pre-incubation, the cells were stimulated by adding 5 μL human T activator αCD3/αCD28 Dynabeads™ (Gibco, 11132D) at 1.2×107 beads/mL for 15 minutes at 37° C. Detection of Ser376 phosphorylation status was accomplished by first adding 10 μL of 5×AlphaLISA lysis buffer (Perkin Elmer, ALSU-PSLP-A500) to each well of the cell plate using a Multidrop Combi (5840300), followed by 20 minutes shaking. 10 μL cell lysate from each treatment were then transferred to a white 384-well plate (Corning 3572) and incubated with AlphaLISA acceptor beads for one hour (AlphaLISA SureFire Ultra p-SLP76(Ser376), Perkin Elmer, ALSU-PSLP-A500), and donor beads for additional 2 hours at room temperature in the dark.
For EL-4.IL2 assay, 50 μL cell suspension at 2×10^6 cells/mL in HBSS were first dispensed into 384-well plates and then 50 nL serial dilutions of test compounds were spotted to each well by an Echo liquid handler. After 60 min. incubation at 37° C., cells were stimulated by adding 5 μL mouse T cell activator αCD3/αCD28 Dynabeads™ (ThermFisher Scientific, 11452D) for 30 minutes at 37° C. After a brief spin and subsequent supernatant discarded, 12.5 μL of Cisbio lysis buffer were added to each well and plates were shaken for 30 min at 450 RPM. For detection, 4 μL prepared HTRF antibody mixture (Cisbio, 63ADK000U) in detection buffer were mixed with 16 μl of cell lysate and plates were incubated at room temperature for 19 hours prior to EnVision reading.

Sequence of full-length human HPK1 (MAP4K1) (Q92918 whole entry): as the sequence (Q92918 whole entry, looked up) above

Row | SMILES | pIC50 [1] | pIC50 [2]
1 | COc1cccc(F)c1N1CCc2cnc(Nc3cnc4c(c3)CN(C)CC4)nc2C1 [Example 120, 7-(2-fluoro-6-methoxyphenyl)-N-(6-methyl-5,6,7,8-tetrahydro-1,6-naphthyridin-3-yl)-5,6,7,8-tetrahydropyrido[3,4-d]pyrimidin-2-amine] | – | < 6.00
2 | Cc1c(N2CCc3cnc(Nc4ccc(NCCN(C)C)c(F)c4)nc3C2)cnc2c1NCCO2 [Example 1, N1-[2-(dimethylamino)ethyl]-2-fluoro-N4-(7-{8-methyl-1H,2H,3H-pyrido[2,3-b][1,4]oxazin-7-yl}-5H,6H,7H,8H-pyrido[3,4-d]pyrimidin-2-yl)benzene-1,4-diamine] | > 7.00 | > 6.30
3 | Cc1c(N2CCc3cnc(Nc4ccc5c(c4)CN(C)C5)nc3C2)cnc2c1NCCO2 [Example 104, 7-(8-methyl-2,3-dihydro-1H-pyrido[2,3-b][1,4]oxazin-7-yl)-N-(2-methylisoindolin-5-yl)-5,6,7,8-tetrahydropyrido[3,4-d]pyrimidin-2-amine] | > 7.00 | > 6.30
4 | Cc1c(N2CCc3cnc(Nc4ccc(NC(=O)CN5CCOCC5)cc4)nc3C2)cnc2c1NCCO2 [Example 12, N-{4-[(7-{8-methyl-1H,2H,3H-pyrido[2,3-b][1,4]oxazin-7-yl}-5H,6H,7H,8H-pyrido[3,4-d]pyrimidin-2-yl)amino]phenyl}-2-(morpholin-4-yl)acetamide] | > 7.00 | > 6.30
5 | Cc1cc(Nc2cc3c(cn2)CCN(c2cnc4c(c2C)NCCO4)C3)ccc1CS(C)(=O)=O [Example 179, N-[4-(methanesulfonylmethyl)-3-methylphenyl]-6-{8-methyl-1H,2H,3H-pyrido[2,3-b][1,4]oxazin-7-yl}-5,6,7,8-tetrahydro-2,6-naphthyridin-3-amine] | > 7.00 | > 6.30
6 | COCCOc1ccc(Nc2ncc3c(n2)CN(c2cnc4c(c2C)NCCO4)CC3)cc1CO [Example 83, (2-(2-methoxyethoxy)-5-((7-(8-methyl-2,3-dihydro-1H-pyrido[2,3-b][1,4]oxazin-7-yl)-5,6,7,8-tetrahydropyrido[3,4-d]pyrimidin-2-yl)amino)phenyl)methanol] | > 7.00 | 6.00 to 6.30
7 | Cc1cc(Nc2cc3c(cn2)CCN(c2cnc4c(c2C)NCCO4)C3)ccc1NCCN(C)C [Example 14, N1-[2-(dimethylamino)ethyl]-2-methyl-N4-(6-{8-methyl-1H,2H,3H-pyrido[2,3-b][1,4]oxazin-7-yl}-5,6,7,8-tetrahydro-2,6-naphthyridin-3-yl)benzene-1,4-diamine] | > 7.00 | > 6.30
8 | CC(=O)Nc1ccc(Nc2ncc3c(n2)CN(c2cnc4c(c2C)NCCO4)CC3)cn1 [Example 73, N-(5-((7-(8-methyl-2,3-dihydro-1H-pyrido[2,3-b][1,4]oxazin-7-yl)-5,6,7,8-tetrahydropyrido[3,4-d]pyrimidin-2-yl)amino)pyridin-2-yl)acetamide] | > 7.00 | 6.00 to 6.30
9 | Cc1c(N2CCc3cnc(Nc4ccc(CN5CCOCC5)cc4)nc3C2)cnc2c1NCCO2 [Example 99, 7-(8-methyl-2,3-dihydro-1H-pyrido[2,3-b][1,4]oxazin-7-yl)-N-(4-(morpholinomethyl)phenyl)-5,6,7,8-tetrahydropyrido[3,4-d]pyrimidin-2-amine] | > 7.00 | 6.00 to 6.30
10 | Cc1c(N2CCc3cnc(Nc4ccc(CS(=O)(=O)N(C)C)cc4)cc3C2)cnc2c1NCCO2 [Example 150, N,N-dimethyl-1-{4-[(6-{8-methyl-1H,2H,3H-pyrido[2,3-b][1,4]oxazin-7-yl}-5,6,7,8-tetrahydro-2,6-naphthyridin-3-yl)amino]phenyl}methanesulfonamide] | > 7.00 | > 6.30
11 | Cc1c(N2CCc3cnc(NC4CCN(Cc5cnn(C)c5)CC4)nc3C2)cnc2c1NCCO2 [Example 70, N-(7-{8-methyl-1H,2H,3H-pyrido[2,3-b][1,4]oxazin-7-yl}-5H,6H,7H,8H-pyrido[3,4-d]pyrimidin-2-yl)-1-[(1-methyl-1H-pyrazol-4-yl)methyl]piperidin-4-amine] | < 6.00 | –
12 | Cc1cc(Nc2ncc3c(n2)CN(c2cnc4c(c2Cl)NCCO4)CC3)ccc1CS(C)(=O)=O [Example 177, 7-{8-chloro-1H,2H,3H-pyrido[2,3-b][1,4]oxazin-7-yl}-N-[4-(methanesulfonylmethyl)-3-methylphenyl]-5H,6H,7H,8H-pyrido[3,4-d]pyrimidin-2-amine] | > 7.00 | –

Other lines, results leading:

Row | pIC50 [1] | pIC50 [2] | SMILES
13 | > 7.00 | 6.00 to 6.30 | Cc1cc(Nc2cc3c(cn2)CCN(c2cnc4c(c2C)NCCO4)C3)ccc1NCCN1CCOCC1 [Example 15, 2-methyl-N4-(6-{8-methyl-1H,2H,3H-pyrido[2,3-b][1,4]oxazin-7-yl}-5,6,7,8-tetrahydro-2,6-naphthyridin-3-yl)-N1-[2-(morpholin-4-yl)ethyl]benzene-1,4-diamine]
14 | > 7.00 | > 6.30 | COCC1CN(C(=O)Cc2ccc(Nc3ncc4c(n3)CN(c3cnc5c(c3C)NCCO5)CC4)cc2)C1 [Example 175, 1-[3-(methoxymethyl)azetidin-1-yl]-2-{4-[(7-{8-methyl-1H,2H,3H-pyrido[2,3-b][1,4]oxazin-7-yl}-5H,6H,7H,8H-pyrido[3,4-d]pyrimidin-2-yl)amino]phenyl}ethan-1-one]
15 | > 7.00 | 6.00 to 6.30 | Cc1cc(Nc2cc3c(cn2)CCN(c2cnc4c(c2C)NCCO4)C3)ccc1C(=O)NCCN1CCOCC1 [Example 27, 2-methyl-4-[(6-{8-methyl-1H,2H,3H-pyrido[2,3-b][1,4]oxazin-7-yl}-5,6,7,8-tetrahydro-2,6-naphthyridin-3-yl)amino]-N-[2-(morpholin-4-yl)ethyl]benzamide]
16 | > 7.00 | > 6.30 | Cc1cc(Nc2ncc3c(n2)CN(c2cnc4c(c2C)NCCO4)CC3)ccc1NC(=O)CN(C)C [Example 45, 2-(dimethylamino)-N-{2-methyl-4-[(7-{8-methyl-1H,2H,3H-pyrido[2,3-b][1,4]oxazin-7-yl}-5H,6H,7H,8H-pyrido[3,4-d]pyrimidin-2-yl)amino]phenyl}acetamide]
17 | > 7.00 | > 6.30 | Cc1c(N2CCc3cnc(Nc4cc5n(n4)CC(=O)N(C(C)C)CC5)cc3C2)cnc2c1NCCO2 [Example 7, 2-[(6-{8-methyl-1H,2H,3H-pyrido[2,3-b][1,4]oxazin-7-yl}-5,6,7,8-tetrahydro-2,6-naphthyridin-3-yl)amino]-6-(propan-2-yl)-4H,5H,6H,7H,8H-pyrazolo[1,5-d][1,4]diazepin-7-one]
18 | > 7.00 | > 6.30 | Cc1cc(Nc2ncc3c(n2)CN(c2cnc4c(c2C)NCCO4)CC3)ccc1CS(C)(=O)=O [Example 178, N-[4-(methanesulfonylmethyl)-3-methylphenyl]-7-{8-methyl-1H,2H,3H-pyrido[2,3-b][1,4]oxazin-7-yl}-5H,6H,7H,8H-pyrido[3,4-d]pyrimidin-2-amine]
19 | > 7.00 | > 6.30 | Cc1c(N2CCc3cnc(Nc4ccc(CS(=O)(=O)CCN(C)C)cc4)nc3C2)cnc2c1NCCO2 [Example 154, N-(4-{[2-(dimethylamino)ethanesulfonyl]methyl}phenyl)-7-{8-methyl-1H,2H,3H-pyrido[2,3-b][1,4]oxazin-7-yl}-5H,6H,7H,8H-pyrido[3,4-d]pyrimidin-2-amine]
